# From US20140213454A1, “METHODS TO INDUCE DROUGHT TOLERANCE IN CROPS” (Valent BioSciences Corporation, priority 2013, published 2014)
# Key:
# [1] = system: corn; settings: Robertson and Greenway 1973; cited from earlier work
# [2] = system: perennial ryegrass; settings: Jiang and Fry 1998; cited from earlier work
# [3] = system: hybrid corn; experiment: Field trial 2012, time course of GA3 applications, hybrid corn (Example 3); type: in vivo; settings: 5.3 grams GA3/acre, extreme and exceptional drought, untreated 116
# Experimental: In another field trial conducted in 2012 a time course of GA3 applications was performed. In this trial, hybrid corn was planted on April 24, 2012 at a density of 32,000 plants/acre. The plants were sprayed with GA3 at either the fifth leaf (V5) or tassel emergence (VT) on June 6 or July 7, respectively. This trial was subjected to extreme and exceptional drought in July during set and grain fill. As is shown in Table 3 below, the effect of the spray treatments of GA3 was dependent on the timing of the GA3 application.
# [4] = system: corn; experiment: Replicated corn trial 2012, extreme and exceptional drought (Example 2); type: in vivo; settings: for Grain Yield: extreme and exceptional drought, untreated 88.45
# Excerpt: In a replicated trial conducted in 2012, the corn crop experienced extreme and exceptional drought in July, as described by the National Climate Data Center. Corn was planted at the end of April and treated with GA3 at either the V2 or V5 growth stages. Thirty two days after application, the GA3-treated corn was approximately 10 inches taller than the untreated on average.
# [5] = system: corn; experiment: Replicated corn trial 2012, moderate drought (Example 1); type: in vivo
# Experimental: A replicated corn silage study was conducted in 2012. Corn was planted on May 18, 2012, and treated with two rates of GA3 at either the V2 (June 2) or V5 (June 18) growth stage, each time at two rates of GA3. Grain yields were estimated from harvests of 20 feet of row and converted to bushels of grain per acre. There was 1.5 inches of rain in the two weeks before planting but no rain from May 10 until May 29, when there was 0.7 inch rain. During June there was 2.9 inches of rain spread over the month. There were only two rain events from July 1-25, each of less than 0.2 inches. On July 26th there was approximately 2 inches of rain. Rainfall in June, July and August was about one third below the 30-year average for the area and the corn was under moderate drought conditions. Crop moisture conditions in July were described as ‘excessively dry’ by the National Climate Data Center of NOAA.
smiles,measurement,setting,value
C[N+](C)(C)CCCl [chlormequat chloride],Drought resistance,[1],induce drought resistance in corn
"CCOC(=O)C1CC(=O)C(=C(O)C2CC2)C(=O)C1 (stereo not shown) [Trinexapac-ethyl, trinexapac-ethyl]",Drought tolerance,[2],induce drought tolerance in perennial ryegrass
"C=C1C[C@]23C[C@@]1(O)CC[C@H]2[C@@]12C=C[C@H](O)[C@@](C)(C(=O)O1)[C@H]2[C@@H]3C(=O)O [GA3, gibberellic acid]",Grain Yield,[3]; application stage V5,155 Bu/Acre
same,Grain Yield,[3]; application stage VT (tassel emergence),131 Bu/Acre
same,Grain Yield,"[4]; 3.2 grams GA3/acre, application stage V2",119.70 Bu/Acre
same,Grain Yield,"[4]; 3.2 grams GA3/acre, application stage V5",155.65 Bu/Acre
same,Grain Yield,"[4]; 6.4 grams GA3/acre, application stage V2",119.83 Bu/Acre
same,Grain Yield,"[4]; 6.4 grams GA3/acre, application stage V5",121.60 Bu/Acre
same,"Plant height, taller than the untreated on average",[4]; thirty two days after application at V2 or V5,approximately 10 inches
same,Grain Yield,"[5]; 3.2 grams GA3/acre, application timing V2, untreated 124.0",141.2 Bu/Acre
same,Grain Yield,"[5]; 3.2 grams GA3/acre, application timing V5, untreated 124.0",143.0 Bu/Acre
same,Grain Yield,"[5]; 6.4 grams GA3/acre, application timing V2, untreated 124.0",141.1 Bu/Acre
same,Grain Yield,"[5]; 6.4 grams GA3/acre, application timing V5, untreated 124.0",156.1 Bu/Acre
